From PubChem BioAssay AID220 (DTP/NCI, 2004)
Where “and” joins values, the source holds several entries; their conditions need not be identical. Equal values may be shown once. Records with an inconclusive call do not appear.

Test system: CD8F1 mice, subcutaneous mammary adenocarcinoma, T/C%
Experiment: NCI In Vivo Anticancer Drug Screen. Data for tumor model Mammary Adenocarcinoma CD8F1 (subcutaneous) in CD8F1
Conditions: higher = larger tumour
In short: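 Compound-treated versus vehicle-treated mice with transplantable tumors; survival or tumor size compared as T/C.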

[1] = endpoint: median tumor weight change, dose: 125.0 mg/kg/injection, schedule: Q01DX001 (ip), vehicle: saline with Tween-80
[2] = endpoint: median tumor weight change, dose: 250.0 mg/kg/injection, schedule: Q01DX001 (ip), vehicle: saline with Tween-80
[3] = endpoint: median tumor weight change, dose: 500.0 mg/kg/injection, schedule: Q01DX001 (ip), vehicle: saline with Tween-80
[4] = endpoint: median tumor weight change, dose: 1000.0 mg/kg/injection, schedule: Q01DX001 (ip), vehicle: saline with Tween-80
[5] = endpoint: median tumor weight (est.), dose: 25.0 mg/kg/injection, schedule: Q07DX005 (ip), vehicle: Klucel (hydroxypropylcellulose) (HPC)
[6] = endpoint: median tumor weight (est.), dose: 12.5 mg/kg/injection, schedule: Q07DX005 (ip), vehicle: Klucel (hydroxypropylcellulose) (HPC)
[7] = endpoint: median tumor weight (est.), dose: 50.0 mg/kg/injection, schedule: Q07DX005 (ip), vehicle: Klucel (hydroxypropylcellulose) (HPC)
[8] = endpoint: median tumor weight (est.), dose: 100.0 mg/kg/injection, schedule: Q07DX005 (ip), vehicle: Klucel (hydroxypropylcellulose) (HPC)
[9] = endpoint: median tumor weight (est.), dose: 200.0 mg/kg/injection, schedule: Q07DX005 (ip), vehicle: Klucel (hydroxypropylcellulose) (HPC)
[10] = endpoint: median tumor weight (est.), dose: 400.0 mg/kg/injection, schedule: Q07DX005 (ip), vehicle: Klucel (hydroxypropylcellulose) (HPC)
[11] = endpoint: median tumor weight change, dose: 62.5 mg/kg/injection, schedule: Q01DX001 (ip), vehicle: saline with Tween-80

O=C1SC(c2ccccc2)=S=C1c1ccccc1
T/C [1]: 67 % of control
T/C [2]: 100 % of control
T/C [3]: 60 % of control
T/C [4]: 56 % of control

C=CC(C)(C)n1cc(C2=C(O)C(=O)C(c3cn(C(C)(C)C=C)c4ccccc34)=C(O)C2=O)c2ccccc21
T/C (endpoint: median tumor weight (est.), dose: 2.5 mg/kg/injection, schedule: Q07DX005 (ip), vehicle: Klucel (hydroxypropylcellulose) (HPC)): 122 % of control
T/C (endpoint: median tumor weight (est.), dose: 5.0 mg/kg/injection, schedule: Q07DX005 (ip), vehicle: Klucel (hydroxypropylcellulose) (HPC)): 74 % of control
T/C (endpoint: median tumor weight (est.), dose: 10.0 mg/kg/injection, schedule: Q07DX005 (ip), vehicle: Klucel (hydroxypropylcellulose) (HPC)): 91 % of control
T/C (endpoint: median tumor weight (est.), dose: 20.0 mg/kg/injection, schedule: Q07DX005 (ip), vehicle: Klucel (hydroxypropylcellulose) (HPC)): 157 % of control
T/C (endpoint: median tumor weight (est.), dose: 40.0 mg/kg/injection, schedule: Q07DX005 (ip), vehicle: Klucel (hydroxypropylcellulose) (HPC)): 168 % of control
T/C (endpoint: median tumor weight change, dose: 1.25 mg/kg/injection, schedule: Q01DX001 (ip), vehicle: DMSO): 64 % of control
T/C (endpoint: median tumor weight change, dose: 2.5 mg/kg/injection, schedule: Q01DX001 (ip), vehicle: DMSO): 77 % of control
T/C (endpoint: median tumor weight change, dose: 5.0 mg/kg/injection, schedule: Q01DX001 (ip), vehicle: DMSO): 86 % of control
T/C (endpoint: median tumor weight change, dose: 10.0 mg/kg/injection, schedule: Q01DX001 (ip), vehicle: DMSO): 110 % of control

COc1ccc2[nH]c3c(c2c1)CCNC3CC(C)CCC=C(C)C (centres undefined)
T/C (endpoint: median tumor weight change, dose: 15.62 mg/kg/injection, schedule: Q01DX001 (ip), vehicle: Klucel (hydroxypropylcellulose) (HPC)): 118 % of control
T/C (endpoint: median tumor weight change, dose: 25.0 mg/kg/injection, schedule: Q01DX001 (ip), vehicle: Klucel (hydroxypropylcellulose) (HPC)): 100 % of control
T/C (endpoint: median tumor weight change, dose: 31.25 mg/kg/injection, schedule: Q01DX001 (ip), vehicle: Klucel (hydroxypropylcellulose) (HPC)): 197 % of control
T/C (endpoint: median tumor weight change, dose: 50.0 mg/kg/injection, schedule: Q01DX001 (ip), vehicle: Klucel (hydroxypropylcellulose) (HPC)): 64 % of control
T/C (endpoint: median tumor weight change, dose: 100.0 mg/kg/injection, schedule: Q01DX001 (ip), vehicle: Klucel (hydroxypropylcellulose) (HPC)): 51 % of control
T/C (endpoint: median tumor weight change, dose: 125.0 mg/kg/injection, schedule: Q01DX001 (ip), vehicle: Klucel (hydroxypropylcellulose) (HPC)): 159 % of control

C/C=C/C1=CC(=O)C(O)C1O (centres undefined)
T/C (endpoint: median tumor weight (est.), dose: 45.0 mg/kg/injection, schedule: Q07DX005 (ip), vehicle: water): 122 % of control
T/C (endpoint: median tumor weight (est.), dose: 90.0 mg/kg/injection, schedule: Q07DX005 (ip), vehicle: water): 78 % of control
T/C (endpoint: median tumor weight (est.), dose: 180.0 mg/kg/injection, schedule: Q07DX005 (ip), vehicle: water): 107 % of control

CC1=C(/C=C/C(C)=C/C=C/C(C)=C/C(=O)O)C(C)(C)CCC1
T/C (endpoint: median tumor weight (est.), dose: 8.0 mg/kg/injection, schedule: Q07DX005 (ip), vehicle: saline with Tween-80): 47 % of control
T/C (endpoint: median tumor weight (est.), dose: 16.0 mg/kg/injection, schedule: Q07DX005 (ip), vehicle: saline with Tween-80): 71 % of control
T/C (endpoint: median tumor weight (est.), dose: 64.0 mg/kg/injection, schedule: Q07DX005 (ip), vehicle: saline with Tween-80): 92 % of control and 106 % of control
T/C (endpoint: median tumor weight (est.), dose: 256.0 mg/kg/injection, schedule: Q07DX005 (ip), vehicle: saline with Tween-80): 49 % of control

Nc1cc2c3c(cccc3c1)C(=O)N(CCN1CCCC1)C2=O
T/C (endpoint: median tumor weight change, dose: 15.63 mg/kg/injection, schedule: Q01DX001 (ip), vehicle: saline with Tween-80): 114 % of control

O=CC=O
T/C [5]: 92 % of control and 100 % of control

OC1CCCC2CCC[N-]C12.OC1CCCC2CCC[N-]C12.[Mn+2] (centres undefined)
T/C [6]: 83 % of control
T/C [5]: 94 % of control
T/C [7]: 81 % of control
T/C [8]: 67 % of control
T/C [9]: 43 % of control

CC(C)(Oc1ccc(-c2cccc3ccccc23)cc1)C(=O)O
T/C [5]: 48 % of control
T/C [7]: 52 % of control
T/C [8]: 57 % of control
T/C [9]: 79 % of control
T/C [10]: 39 % of control

CCOC1=Cc2c(oc3c(C(C)(C)C)cc(OCC)cc23)OC(C(C)(C)C)=C1
T/C (endpoint: median tumor weight change, dose: 15.6 mg/kg/injection, schedule: Q01DX001 (ip), vehicle: saline with Tween-80): 114 % of control
T/C (endpoint: median tumor weight change, dose: 15.62 mg/kg/injection, schedule: Q01DX001 (ip), vehicle: saline with Tween-80): 98 % of control
T/C [11]: 85 % of control and 106 % of control

COc1cccc2c1C(=N)c1c(O)c3c(c(O)c1C2=O)C[C@@](O)(C(C)=O)C[C@@H]3OC1CC(N)C(O)C(C)O1 (some centres undefined)
T/C (endpoint: median tumor weight (est.), dose: 2.0 mg/kg/injection, schedule: Q07DX005 (ip), vehicle: saline): 53 % of control
T/C (endpoint: median tumor weight (est.), dose: 2.97 mg/kg/injection, schedule: Q07DX005 (ip), vehicle: saline): 50 % of control
T/C (endpoint: median tumor weight (est.), dose: 3.0 mg/kg/injection, schedule: Q07DX005 (ip), vehicle: saline): 115 % of control
T/C (endpoint: median tumor weight (est.), dose: 4.45 mg/kg/injection, schedule: Q07DX005 (ip), vehicle: saline): 53 % of control
T/C (endpoint: median tumor weight (est.), dose: 4.5 mg/kg/injection, schedule: Q07DX005 (ip), vehicle: saline): 96 % of control

COc1ccc2c(ccc3oc([N+](=O)[O-])cc32)c1
T/C [11]: 77 % of control
T/C [1]: 63 % of control
T/C [2]: 76 % of control
T/C [3]: 86 % of control
T/C [4]: 56 % of control

CCCCC(C)(C(=O)OCC)C(=O)OCC
T/C [6]: 94 % of control
T/C [9]: 110 % of control
T/C [10]: 212 % of control

CS(C)=O
T/C (endpoint: median tumor weight (est.), dose: 1.5 grams/kg/injection, schedule: Q07DX005 (ip), vehicle: saline): 106 % of control and 122 % of control

CCN(CC)CC[n+]1ccc2c(C)c3[nH]c4ccc(O)cc4c3c(C)c2c1
T/C (endpoint: median tumor weight change, dose: 7.5 mg/kg/injection, schedule: Q01DX001 (ip), vehicle: suspension in saline): 83 % of control
T/C (endpoint: median tumor weight change, dose: 15.0 mg/kg/injection, schedule: Q01DX001 (ip), vehicle: suspension in saline): 72 % of control and 75 % of control
T/C (endpoint: median tumor weight change, dose: 15.6 mg/kg/injection, schedule: Q01DX001 (ip), vehicle: suspension in saline): 78 % of control
T/C (endpoint: median tumor weight change, dose: 31.0 mg/kg/injection, schedule: Q01DX001 (ip), vehicle: suspension in saline): 57 % of control
T/C (endpoint: median tumor weight change, dose: 60.0 mg/kg/injection, schedule: Q01DX001 (ip), vehicle: suspension in saline): 7 % of control and 26 % of control
T/C (endpoint: median tumor weight change, dose: 62.0 mg/kg/injection, schedule: Q01DX001 (ip), vehicle: suspension in saline): 3 % of control

CC1=C[S+](c2ccccc2)c2cccc3cc4ccccc4c1c23 (centres undefined)
T/C (endpoint: median tumor weight change, dose: 0.62 mg/kg/injection, schedule: Q01DX001 (ip), vehicle: saline with Tween-80): 103 % of control
T/C (endpoint: median tumor weight change, dose: 5.0 mg/kg/injection, schedule: Q01DX001 (ip), vehicle: saline with Tween-80): 98 % of control
T/C (endpoint: median tumor weight change, dose: 10.0 mg/kg/injection, schedule: Q01DX001 (ip), vehicle: saline with Tween-80): 40 % of control and 59 % of control

Nc1cc2[nH]cnc2c(=O)[nH]1
T/C (endpoint: mean tumor weight, dose: 20.0 mg/kg/injection, schedule: Q07DX006 (ip), vehicle: saline): 83 % of control
T/C (endpoint: mean tumor weight, dose: 40.0 mg/kg/injection, schedule: Q07DX006 (ip), vehicle: saline): 50 % of control
T/C (endpoint: mean tumor weight, dose: 80.0 mg/kg/injection, schedule: Q07DX006 (ip), vehicle: saline): 76 % of control
T/C (endpoint: median tumor weight (est.), dose: 12.5 mg/kg/injection, schedule: Q07DX005 (ip), vehicle: suspension in saline): 56 % of control
T/C (endpoint: median tumor weight (est.), dose: 25.0 mg/kg/injection, schedule: Q07DX005 (ip), vehicle: suspension in saline): 79 % of control
T/C (endpoint: median tumor weight (est.), dose: 50.0 mg/kg/injection, schedule: Q07DX005 (ip), vehicle: suspension in saline): 56 % of control
T/C (endpoint: median tumor weight (est.), dose: 100.0 mg/kg/injection, schedule: Q07DX005 (ip), vehicle: suspension in saline): 80 % of control
T/C (endpoint: median tumor weight (est.), dose: 200.0 mg/kg/injection, schedule: Q07DX005 (ip), vehicle: suspension in saline): 64 % of control

CC(=O)Oc1c[nH]c(=O)[nH]c1=O
T/C [1]: 62 % of control
T/C [2]: 84 % of control
T/C [3]: 32 % of control
T/C [4]: 32 % of control

COC12C(COC(N)=O)C3=C(C(=O)C(C)=C(N)C3=O)N1CC1C2N1C (centres undefined)
T/C (endpoint: median tumor weight (est.), dose: 2.0 mg/kg/injection, schedule: Q07DX005 (ip), vehicle: suspension in saline): 53 % of control
T/C (endpoint: median tumor weight (est.), dose: 4.0 mg/kg/injection, schedule: Q07DX005 (ip), vehicle: suspension in saline): 73 % of control
T/C (endpoint: median tumor weight (est.), dose: 8.0 mg/kg/injection, schedule: Q07DX005 (ip), vehicle: suspension in saline): 3 % of control
